Test results as given in article PMC7697191, “Identification of Novel Influenza Polymerase PB2 Inhibitors Using a Cascade Docking Virtual Screening Approach” (Molecules, 2020).

What was measured:
[1] = test system: PR/8-R292K mutant (H1N1, recombinant oseltamivir-resistant); assay type: cell-based, influenza A virus (H1N1)
[2] = test system: PR/8-I38T mutant (H1N1, recombinant baloxavir-resistant); assay type: cell-based, influenza A virus (H1N1)

Row | Structure (SMILES) | EC50 [1] [µM] | EC50 [2] [µM]
1 | C=CCn1cc(CNCc2noc(-c3ccc4c(c3)OCO4)n2)c(C)n1 [11D4] | 21.5 ± 5.49 | 32.4 ± 1.52
2 | C=CCn1cc(-c2cc(-c3ccc(C(=O)O)cc3)[nH]c(=N)c2C#N)cn1 [12C5] | 28.6 ± 0.99 | 35.4 ± 1.02
3 | CCSc1ncc(-c2cc(-c3c(C)nn(C)c3C)nc(N)c2C#N)cn1 [21A5] | 9.27 ± 0.55 | 14.1 ± 0.47
4 | Cc1cccnc1CCNc1nc2nonc2nc1NCc1cccs1 [21B1] | 14.6 ± 1.44 | 37 ± 0.67
5 | CCC(CC)O[C@@H]1C=C(C(=O)O)C[C@H](N)[C@H]1NC(C)=O [OC, Oseltamivir carboxylate, reference compound] | > 100 | –
6 | O=C(O)[C@H]1C2CCC(CC2)[C@@H]1Nc1nc(-c2c[nH]c3ncc(F)cc23)ncc1F [VX-787, reference compound] | 4.14 ± 0.66 | 2.34 ± 0.1
